What follows are compounds tested against NANOLUC® Luciferase (Oplophorus gracilirostris, UniProt Q9GV45, A31E/A60N/A81I/F95D/I117V/K70R/L54V/L99Q/M102K/N193R/P142E/Q151K/Q38R/Q45L/V71I/Y165I) (assay: Luminescence assay: substrate titration with purified NANOLUC Luciferase (RLU, signal half-life, Km)). Details: 100 μM substrate; initial light output three minutes after substrate addition; relative to furimazine set to 1.0.
Type: biochemical
Procedure: Each compound to be screened was dissolved in DMSO (5 mM) and then further diluted to 100 μM in NANO-GEO® Luciferase Assay Buffer. A two-fold dilution series was prepared for each substrate by serially diluting 500 μl of the substrate solution with 500 μl of NANO-GLO® Luciferase Assay Buffer. Each diluted substrate titration was then combined in equal volumes with purified NANOLUC® Luciferase diluted into CO2 independent media+10% FBS. Initial light output for each substrate was measured in a GLOMAX®-Multi+ luminometer three minutes after substrate addition and then at five minute intervals as a means to determine signal half-life. Signal half-life was calculated using GraphPad Prism One Phase Decay regression and Km and Vmax were calculated using GraphPad Prism using Michaelis-Menten regression.
The synthesized coelenterazine analogues (compounds of formula (I) and (II)) were evaluated for their suitability as luciferase substrates. NANOLUC® luciferase was employed for the screening because it is a small (19 kDa), stable, and particularly bright enzyme. […] RLU, half-life, and Km values are for furimazine is set to 1.0. […]

Chain of NANOLUC® Luciferase (Q9GV45 28-196 with tags or gaps with the stated changes limits assumed): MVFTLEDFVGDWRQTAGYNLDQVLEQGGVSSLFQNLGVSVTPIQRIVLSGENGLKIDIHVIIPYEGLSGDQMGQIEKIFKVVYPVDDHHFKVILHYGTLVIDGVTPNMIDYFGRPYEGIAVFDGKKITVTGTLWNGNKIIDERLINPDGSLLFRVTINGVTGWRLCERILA

| SMILES | RLU (@100 μM) |
| --- | --- |
| Nc1cccc(-c2cn3c(=O)c(Cc4ccc(F)cc4)nc-3c(Cc3ccccc3)[nH]2)c1F [JRW-1635, 6-(3-amino-2-fluorophenyl)-8-benzyl-2-(4-fluorobenzyl)imidazo[1,2-a]pyrazin-3(7H)-one] | 1.0 |
| O=c1c(Cc2ccco2)nc2c(Cc3ccc(F)cc3)[nH]c(-c3cccc(O)c3)cn1-2 [JRW-1498, 8-(4-fluorobenzyl)-2-(furan-2-ylmethyl)-6-(3-hydroxyphenyl)imidazo[1,2-a]pyrazin-3(7H)-one] | 0.049 |
| O=c1c(Cc2ccco2)nc2c(Cc3ccccc3)[nH]c(-c3cc(O)cc(F)c3)cn1-2 [JRW-1526, 8-benzyl-6-(3-fluoro-5-hydroxyphenyl)-2-(furan-2-ylmethyl)imidazo[1,2-a]pyrazin-3(7H)-one] | 1.0 |
| Nc1cc(-c2cn3c(=O)c(Cc4ccco4)nc-3c(Cc3ccccc3)[nH]2)ccc1F [JRW-1536, 6-(3-amino-4-fluorophenyl)-8-benzyl-2-(furan-2-ylmethyl)imidazo[1,2-a]pyrazin-3(7H)-one] | 0.08 |
| O=c1c(Cc2ccc(C(F)(F)F)o2)nc2c(Cc3ccccc3)[nH]c(-c3cccc(O)c3F)cn1-2 [JRW-1619, 8-benzyl-6-(2-fluoro-3-hydroxyphenyl)-2-((5-(trifluoromethyl)furan-2-yl)methyl)imidazo[1,2-a]pyrazin-3(7H)-one] | 0.85 |
| Nc1ccc(F)c(-c2cn3c(=O)c(Cc4ccco4)nc-3c(Cc3ccccc3)[nH]2)c1 [JRW-1411, 6-(5-amino-2-fluorophenyl)-8-benzyl-2-(furan-2-ylmethyl)imidazo[1,2-a]pyrazin-3(7H)-one] | 0.001 |
| COc1ccc(Cc2nc3c(Cc4ccccc4)[nH]c(-c4cccc(O)c4)cn-3c2=O)cc1 [JRW-1052, 8-benzyl-6-(3-hydroxyphenyl)-2-(4-methoxybenzyl)imidazo[1,2-a]pyrazin-3(7H)-one] | 0.4 |
| COCc1cccc(Cc2nc3c(Cc4ccccc4)[nH]c(-c4cccc(O[Si](C)(C)C(C)(C)C)c4)cn-3c2=O)c1 [JRW-0372, 8-benzyl-6-(3-((tert-butyldimethylsilyl)oxy)phenyl)-2-(3-(methoxymethyl)benzyl)imidazo[1,2-a]pyrazin-3(7H)-one] | 0.00033 |
| O=c1c(Cc2ccco2)nc2c(Cc3ccccc3)[nH]c(-c3cc(O)ccc3F)cn1-2 [JRW-1405, 8-benzyl-6-(2-fluoro-5-hydroxyphenyl)-2-(furan-2-ylmethyl)imidazo[1,2-a]pyrazin-3(7H)-one] | 1.0 |
| Cc1c(O)cccc1-c1cn2c(=O)c(Cc3ccco3)nc-2c(Cc2ccccc2)[nH]1 [JRW-1645, 8-benzyl-2-(furan-2-ylmethyl)-6-(3-hydroxy-2-methylphenyl)imidazo[1,2-a]pyrazin-3(7H)-one] | 0.07 |
| Cc1c(N)cccc1-c1cn2c(=O)c(Cc3ccco3)nc-2c(Cc2ccccc2)[nH]1 [JRW-1642, 6-(3-amino-2-methylphenyl)-8-benzyl-2-(furan-2-ylmethyl)imidazo[1,2-a]pyrazin-3(7H)-one] | 0.04 |
| O=c1c(Cc2ccco2)nc2c(Cc3ccccc3)[nH]c(-c3cccc(O)c3F)cn1-2 [JRW-1404, 8-benzyl-6-(2-fluoro-3-hydroxyphenyl)-2-(furan-2-ylmethyl)imidazo[1,2-a]pyrazin-3(7H)-one] | 1.2 |
| Cc1cccc(Cc2[nH]c(-c3cccc(O)c3)cn3c(=O)c(Cc4ccco4)nc2-3)c1 [JRW-1368, 2-(furan-2-ylmethyl)-6-(3-hydroxyphenyl)-8-(3-methylbenzyl)imidazo[1,2-a]pyrazin-3(7H)-one] | 0.032 |
| Cc1ccc(Cc2nc3c(Cc4ccccc4)[nH]c(-c4cccc(O)c4)cn-3c2=O)o1 [JRW-1056, 8-benzyl-6-(3-hydroxyphenyl)-2-((5-methylfuran-2-yl)methyl)imidazo[1,2-a]pyrazin-3(7H)-one] | 1.1 |
| O=c1c(Cc2ccc3c(c2)OCO3)nc2c(Cc3ccccc3)[nH]c(-c3cccc(O)c3)cn1-2 [JRW-0777, 2-(benzo[d][1,3]dioxol-5-ylmethyl)-8-benzyl-6-(3-hydroxyphenyl)imidazo[1,2-a]pyrazin-3(7H)-one] | 0.45 |
| Nc1cc(F)cc(-c2cn3c(=O)c(Cc4ccco4)nc-3c(Cc3ccccc3)[nH]2)c1 [JRW-1535, 6-(3-amino-5-fluorophenyl)-8-benzyl-2-(furan-2-ylmethyl)imidazo[1,2-a]pyrazin-3(7H)-one] | 0.73 |
| Nc1cccc(-c2cn3c(=O)c(Cc4ccco4)nc-3c(Cc3ccccc3F)[nH]2)c1F [JRW-1667, 6-(3-amino-2-fluorophenyl)-8-(2-fluorobenzyl)-2-(furan-2-ylmethyl)imidazo[1,2-a]pyrazin-3(7H)-one] | 2.1 |
| O=c1c(Cc2ccco2)nc2c(Cc3ccccc3F)[nH]c(-c3cccc(O)c3F)cn1-2 [JRW-1668, 6-(2-fluoro-3-hydroxyphenyl)-8-(2-fluorobenzyl)-2-(furan-2-ylmethyl)imidazo[1,2-a]pyrazin-3(7H)-one] | 1.5 |
| Cc1cccc(Cc2[nH]c(-c3cccc(O)c3F)cn3c(=O)c(Cc4ccco4)nc2-3)c1 [JRW-1370, 6-(2-fluoro-3-hydroxyphenyl)-2-(furan-2-ylmethyl)-8-(3-methylbenzyl)imidazo[1,2-a]pyrazin-3(7H)-one] | 0.036 |
| COc1cccc(Cc2nc3c(Cc4ccccc4)[nH]c(-c4cccc(O)c4)cn-3c2=O)c1 [JRW-1047, 8-benzyl-6-(3-hydroxyphenyl)-2-(3-methoxybenzyl)imidazo[1,2-a]pyrazin-3(7H)-one] | 0.5 |
| O=c1c(Cc2ccc(F)cc2)nc2c(Cc3ccccc3)[nH]c(-c3cccc(O)c3)cn1-2 [JRW-0786, 8-benzyl-2-(4-fluorobenzyl)-6-(3-hydroxyphenyl)imidazo[1,2-a]pyrazin-3(7H)-one] | 0.88 |
| O=c1c(Cc2ccco2)nc2c(Cc3ccccc3)[nH]c(-c3ccc(Cl)c(O)c3)cn1-2 [JRW-1483, 8-benzyl-6-(4-chloro-3-hydroxyphenyl)-2-(furan-2-ylmethyl)imidazo[1,2-a]pyrazin-3(7H)-one] | 0.008 |
| Nc1cccc(-c2cn3c(=O)c(Cc4ccc(C(F)(F)F)o4)nc-3c(Cc3ccccc3)[nH]2)c1F [JRW-1610, 6-(3-amino-2-fluorophenyl)-8-benzyl-2-((5-(trifluoromethyl)furan-2-yl)methyl)imidazo[1,2-a]pyrazin-3(7H)-one] | 0.71 |
| O=c1c(Cc2ccco2)nc2c(Cc3ccccc3)[nH]c(-c3cc(O)cc(Cl)c3)cn1-2 [JRW-1479, 8-benzyl-6-(3-chloro-5-hydroxyphenyl)-2-(furan-2-ylmethyl)imidazo[1,2-a]pyrazin-3(7H)-one] | 0.43 |
| O=c1c(Cc2ccco2)nc2c(Cc3ccccc3)[nH]c(-c3cccc(O)c3Cl)cn1-2 [JRW-1488, 8-benzyl-6-(2-chloro-3-hydroxyphenyl)-2-(furan-2-ylmethyl)imidazo[1,2-a]pyrazin-3(7H)-one] | 0.31 |

From patent US11691976B2, “Coelenterazine analogues” (PROMEGA CORPORATION, priority 2018, dated 2023)
